Source: ChEMBL document CHEMBL2384948, “Aeruginosins from a Microcystis sp. bloom material collected in Varanasi, India” (J Nat Prod, 2013)

Molecular target: Trypsin (Homo sapiens, UniProt P07477+P07478+P35030)
Assay: Inhibition of trypsin (unknown origin)
Format: protein assay

Question: `CC[C@H](C)[C@@H](NC(=O)[C@@H](O)Cc1ccc(O)c(Cl)c1)C(=O)N1[C@H](C(=O)NCCCCNC(=N)N)C[C@@H]2CC[C@@H](O)C[C@@H]21` was tested. Which IC50 did it give?
Answer: Its IC50 is 2.8 µM.

Question: Which IC50 does the source give for `N=C(N)NCCCCNC(=O)[C@@H]1C[C@@H]2CC[C@@H](O)C[C@@H]2N1C(=O)[C@H](Cc1ccccc1)NC(=O)[C@@H](O)Cc1ccc(O)cc1` here?
Answer: The IC50 was 0.5 µg/mL.

Question: Which IC50 does the source give for `CC(C)C[C@@H](NC(=O)[C@H](O)Cc1ccc(O)c(Br)c1)C(=O)N1[C@H](C(=O)NCCCCNC(=N)N)C[C@@H]2CC[C@@H](O)C[C@@H]21` here?
Answer: Its IC50 is 4.1 µM.

Question: For `CC(C)C[C@@H](NC(=O)[C@H](O)Cc1ccc(O)c(Cl)c1)C(=O)N1[C@H](C(=O)NCCCCNC(=N)N)C[C@@H]2CC[C@@H](O)C[C@@H]21`, which IC50 is on record?
Answer: The IC50 was 4.3 µM.
